Measurements published in patent US20220306617A1, “SUBSTITUTED 1,3-PHENYL HETEROARYL DERIVATIVES AND THEIR USE IN THE TREATMENT OF DISEASE” (NOVARTIS AG, priority 2019, published 2022).
Where a name gives a salt, the structure may show the parent alone.

Target: T1, abc isoform of human TMEM16A channel expressed in CHO cells (Homo sapiens, UniProt Q5XXA6, DEL476-501)
T1 construct: expressed in transfected cells; host or cells: CHO cells, doxycycline-inducible expression under Blasticidin/Zeocin selection
T1 sequence (Q5XXA6 with tags, fused parts or gaps isoform Q5XXA6-5 DEL539-564): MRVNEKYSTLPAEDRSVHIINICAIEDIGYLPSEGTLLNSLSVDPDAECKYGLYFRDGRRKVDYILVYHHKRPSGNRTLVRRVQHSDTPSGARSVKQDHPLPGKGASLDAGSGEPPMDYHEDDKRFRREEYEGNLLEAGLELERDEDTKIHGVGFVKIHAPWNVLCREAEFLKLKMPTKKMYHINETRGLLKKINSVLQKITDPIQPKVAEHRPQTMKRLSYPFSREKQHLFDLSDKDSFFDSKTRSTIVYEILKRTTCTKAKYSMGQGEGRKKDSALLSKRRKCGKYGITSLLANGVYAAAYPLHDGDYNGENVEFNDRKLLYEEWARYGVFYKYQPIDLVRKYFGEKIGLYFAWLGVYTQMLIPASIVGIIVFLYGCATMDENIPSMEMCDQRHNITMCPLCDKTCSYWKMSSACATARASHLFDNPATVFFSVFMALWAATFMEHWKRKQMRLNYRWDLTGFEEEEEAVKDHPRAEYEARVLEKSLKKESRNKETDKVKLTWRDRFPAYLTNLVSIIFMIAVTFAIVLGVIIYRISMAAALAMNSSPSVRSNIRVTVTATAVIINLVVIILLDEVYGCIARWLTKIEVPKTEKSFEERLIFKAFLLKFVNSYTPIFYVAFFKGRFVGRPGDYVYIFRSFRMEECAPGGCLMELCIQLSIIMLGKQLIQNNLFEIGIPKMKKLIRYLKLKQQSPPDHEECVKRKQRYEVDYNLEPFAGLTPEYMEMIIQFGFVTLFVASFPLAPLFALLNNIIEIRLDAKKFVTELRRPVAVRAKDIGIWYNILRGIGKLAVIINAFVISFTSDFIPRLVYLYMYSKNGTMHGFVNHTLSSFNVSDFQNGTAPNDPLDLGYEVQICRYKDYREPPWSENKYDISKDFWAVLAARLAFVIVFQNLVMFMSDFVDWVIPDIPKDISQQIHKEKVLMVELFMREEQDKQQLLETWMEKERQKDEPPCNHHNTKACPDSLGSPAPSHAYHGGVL
Test: Automated patch clamping (QPatch) assay to measure TMEM16A activity in whole-cell
Format: cell-based
Settings: for EC50: CHO cells expressing human TMEM16A (abc), whole-cell automated patch clamp, Hill fit, read-out: TMEM16A QPATCH assay EC50 V3 EC50; for Emax: CHO, read-out: TMEM16A QPATCH assay EC50 V3 Assay Window (% TMEM16A max activation)
Outline: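 Whole-cell currents were recorded by planar automated patch clamp from induced CHO cells (doxycycline 1 μg/mL, 18-24 h), using a −70 mV hold, +70 mV step and −90 to +70 mV ramp. Values: Hill-fitted EC50, and activation scaled between vehicle current and reference-potentiator maximum; 0.3% DMSO final.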

[1] = maximum current at highest dose relative to reference potentiator at maximal concentration (upper limit) and vehicle (lower limit)

EC50	Emax [1]	TMEM16A QPATCH assay EC50 V3 Assay Window (% TMEM16A max activation) [1]	SMILES
550 nM		73%	CCC(CC)NC(=O)c1cnc(-c2cccc(-c3cc(C(=O)NC(C4CC4)C4CCCO4)n[nH]3)c2)o1 (single isomer, unassigned) [Example 3.4 (iii), 2-(3-(3-((Cyclopropyl(Tetrahydrofuran-2-Yl)Methyl)Carbamoyl)-1H-Pyrazol-5-Yl)Phenyl)-N-(Pentan-3-Yl)Oxazole-5-Carboxamide]
390 nM	72%		C[C@H](NC(=O)c1nnc(-c2cccc(-c3ncc(C(=O)NC4(C5CC5)CC4)o3)c2)[nH]1)C1CC1 [Example 12.15]
250 nM	73%		C[C@H](NC(=O)c1cnc(-c2cccc(-c3cc(C(=O)N[C@@H](C)C4CC4)n(CC(C)(C)O)n3)c2)o1)C1CC1 [Example 6.3, N-((S)-1-Cyclopropylethyl)-2-(3-(5-(((S)-1-Cyclopropylethyl)Carbamoyl)-1-(2-Hydroxy-2-Methylpropyl)-1H-Pyrazol-3-Yl)Phenyl)Oxazole-5-Carboxamide]
40 nM	116%		CCOC(=O)[C@@H](NC(=O)c1cc(-c2cccc(-c3ncc(C(=O)NC(C4CC4)C4CC4)o3)c2)nn1CC(C)(C)O)C(C)C [Example 10.0, (S)-Ethyl 2-(3-(3-(5-((Dicyclopropylmethyl)Carbamoyl)Oxazol-2-Yl)Phenyl)-1-(2-Hydroxy-2-Methylpropyl)-1 H-Pyrazole-5-Carboxamido)-3-Methylbutanoate]
90 nM	85%		CCC(CC)NC(=O)c1cnc(-c2cccc(-c3cc(C(=O)NC(CC)CC)n(CCO)n3)c2)o1 [Example 9.7, 2-(3-(1-(2-Hydroxyethyl)-5-(Pentan-3-Ylcarbamoyl)-1H-Pyrazol-3-Yl)Phenyl)-N-(Pentan-3-Yl)Oxazole-5-Carboxamide]
240 nM	104%		CCC(CC)NC(=O)c1cnc(-c2cccc(-c3cc(C(=O)N[C@@H](C)C4CC4)n(CC(C)O)n3)c2)o1 (stereo partly drawn) [Example 9.5, 2-(3-(5-(((S)-1-Cyclopropylethyl)Carbamoyl)-1-(2-Hydroxypropyl)-1H-Pyrazol-3-Yl)Phenyl)-N-(Pentan-3-Yl)Oxazole-5-Carboxamide]
150 nM	137%		CCC(CC)NC(=O)c1cnc(-c2cccc(-c3cc(C(=O)N[C@@H](C)C4CC4)n(CCOC(C)C)n3)c2)o1 [Example 9.0, (S)-2-(3-(5-((1-Cyclopropylethyl)Carbamoyl)-1-(2-Isopropoxyethyl)-1 H-Pyrazol-3-Yl)Phenyl)-N-(Pentan-3-Yl)Oxazole-5-Carboxamide]
20 nM	91%		C[C@H](NC(=O)c1cnc(-c2cccc(-c3nnc(C(=O)NC(C4CC4)C4CC4)[nH]3)c2)o1)C1CC1 [Example 12.7, (S)-N-(1-Cyclopropylethyl)-2-(3-(5-((Dicyclopropylmethyl)Carbamoyl)-4H-1,2,4-Triazol-3-Yl)Phenyl)Oxazole-5-Carboxamide]
70 nM	59%		CCC(NC(=O)c1cnc(-c2cccc(-c3cc(C(=O)N[C@@H](C)C4CC4)[nH]n3)c2)o1)C1CC1 (stereo partly drawn) [Example 1.48, 2-(3-(5-(((S)-1-Cyclopropylethyl)Carbamoyl)-1H-Pyrazol-3-Yl)Phenyl)-N-(1-Cyclopropylpropyl)Oxazole-5-Carboxamide]
30 nM	86%		CCOC(=O)[C@@H](NC(=O)c1cnc(-c2cccc(-c3cc(C(=O)NC(C4CC4)C(F)(F)F)[nH]n3)c2)o1)C(C)C (single isomer, unassigned) [Example 2.3 (i)]

The remaining lines, values behind:

SMILES	EC50	Emax [1]	TMEM16A QPATCH assay EC50 V3 Assay Window (% TMEM16A max activation) [1]
CCC(CC)NC(=O)c1cnc(-c2cccc(-c3nc(C(=O)NC(CC)CC)n(CC(=O)OC(C)(C)C)n3)c2)o1 [Example 15.10, Tert-Butyl 2-(5-(Pentan-3-Ylcarbamoyl)-3-(3-(5-(Pentan-3-Ylcarbamoyl)Oxazol-2-Yl)Phenyl)-1H-1,2,4-Triazol-1-Yl)Acetate]	80 nM	73%	
CCC(CC)NC(=O)c1cnc(-c2cccc(-c3cc(C(=O)N[C@@H](C(=O)OC)c4ccccc4)n[nH]3)c2)o1 [Example 3.65, (R)-Methyl 2-(5-(3-(5-(Pentan-3-Ylcarbamoyl)Oxazol-2-Yl)Phenyl)-1H-Pyrazole-3-Carboxamido)-2-Phenylacetate Trifluoroacetate]	780 nM	28%	
CCC(CC)NC(=O)c1cc(-c2cccc(-c3ncc(C(=O)NC(CC)CC)o3)c2)n[nH]1 [Example 1.20, N-(Pentan-3-Yl)-2-(3-(5-(Pentan-3-Ylcarbamoyl)-1H-Pyrazol-3-yl)Phenyl)Oxazole-5-Carboxamide]	290 nM	112%	
CCC(CC)NC(=O)c1cc(-c2cccc(-c3ncc(C(=O)NCC4CCCCO4)o3)c2)[nH]n1 (stereo not shown) [Example 1.18, 2-(3-(3-(Pentan-3-Ylcarbamoyl)-1H-Pyrazol-5-Yl)Phenyl)-N-((Tetrahydro-2H-Pyran-2-Yl)Methyl)Oxazole-5-Carboxamide]	180 nM	39%	
CCOC(=O)[C@@H](NC(=O)c1cnc(-c2cccc(-c3cc(C(=O)NC(C(F)F)C4CC4)[nH]n3)c2)o1)C(C)C (stereo partly drawn) [Example 2.4, (2S)-Ethyl 2-(2-(3-(5-((1-Cyclopropyl-2,2-Difluoroethyl)Carbamoyl)-1H-Pyrazol-3-Yl)Phenyl)Oxazole-5-Carboxamido)-3-Methylbutanoate]	20 nM	99%	
CCC(CC)NC(=O)c1cnc(-c2cccc(-c3cc(C(=O)NC4CCCCC4)n[nH]3)c2)o1 [Example 3.40, 2-(3-(3-(Cyclohexylcarbamoyl)-1 H-Pyrazol-5-Yl)Phenyl)-N-(Pentan-3-yl)Oxazole-5-Carboxamide]	70 nM	96%	
CCC(CC)NC(=O)c1cc(-c2cccc(-c3ncc(C(=O)NCC(=O)OC(C)C)o3)c2)[nH]n1 [Example 1.32, Isopropyl 2-(2-(3-(3-(Pentan-3-Ylcarbamoyl)-1 H-Pyrazol-5-yl)Phenyl)Oxazole-5-Carboxamido)Acetate]	880 nM	77%	
CCC(CC)NC(=O)c1cnc(-c2cccc(-c3cc(C(=O)NC(C)(C)c4ccccc4)n[nH]3)c2)o1 [Example 3.54, N-(Pentan-3-Yl)-2-(3-(3-((2-Phenylpropan-2-Yl)Carbamoyl)-1H-Pyrazol-5-Yl)Phenyl)Oxazole-5-Carboxamide]	60 nM	109%	
CCC(CC)NC(=O)c1cc(-c2cccc(-c3ncc(C(=O)Nc4cccc(Cl)c4)o3)c2)[nH]n1 [Example 1.33, N-(3-Chlorophenyl)-2-(3-(3-(Pentan-3-Ylcarbamoyl)-1H-Pyrazol-5-yl)Phenyl)Oxazole-5-Carboxamide]	720 nM	66%	
CCC(CC)NC(=O)c1cc(-c2cccc(-c3ncc(C(=O)N[C@@H](COC(C)(C)C)C(=O)OC(C)(C)C)o3)c2)[nH]n1 [Example 1.50, (S)-Tert-Butyl 3-(Tert-Butoxy)-2-(2-(3-(3-(Pentan-3-Ylcarbamoyl)-1H-Pyrazol-5-Yl)Phenyl)Oxazole-5-Carboxamido)Propanoate Trifluoroacetate]	450 nM	115%	
CCC(CC)NC(=O)c1cnc(-c2cccc(-c3cc(C(=O)NC(C)(C)C)n[nH]3)c2)o1 [Example 3.43, 2-(3-(3-(Tert-Butylcarbamoyl)-1 H-Pyrazol-5-Yl)Phenyl)-N-(Pentan-3-yl)Oxazole-5-Carboxamide]	130 nM	84%	
CCOC(=O)[C@H](CC1CCCCC1)NC(=O)c1cc(-c2cccc(-c3ncc(C(=O)NC(CC)CC)o3)c2)[nH]n1 [Example 3.17, (S)-Ethyl 3-Cyclohexyl-2-(5-(3-(5-(Pentan-3-Ylcarbamoyl)Oxazol-2-Yl)Phenyl)-1 H-Pyrazole-3-Carboxamido)Propanoate]	170 nM	66%	
CCC(CC)NC(=O)c1cnc(-c2cccc(-c3cc(C(=O)NC(CC)C(C)C)n[nH]3)c2)o1 (stereo not shown) [Example 3.29, 2-(3-(3-((2-Methylpentan-3-Yl)Carbamoyl)-1H-Pyrazol-5-Yl)Phenyl)-N-(Pentan-3-Yl)Oxazole-5-Carboxamide]	40 nM	94%	
